# Source: patent publication US8198293B2, “Oxymatrine compositions and related methods for treating and preventing chronic infectious diseases” (priority 2008, dated 2012)
# How the values were obtained:
# Assay type in all cases: in vivo, human
# enterovirus protein = assay: Immunoperoxidase staining of stomach biopsy for enterovirus protein (5D8/1); settings: one patient (case 5), before vs after taking oxymatrine for 6 months; correlated with symptomatic improvement
# Text: FIG. 2 illustrates the infected human stomach (biopsy of case 5 stained with 5D8/1) before treatment with oxymatrine.
# FIG. 3 illustrates the stomach biopsy of case 5 stained with 5 D8/1 after taking oxymatrine for 6 months.
# FIG. 2 illustrates immunoperoxidase staining for enterovirus protein in a stomach biopsy before oxymatrine therapy for one patient. […] The decrease in viral protein correlated with significant symptomatic improvement.
# [1] = system: chronic enterovirus infection / chronic fatigue; assay: Case reports: treatment of chronic fatigue (Examples 2-5)
# Protocol: A person with episodes of diarrhea while traveling to Tonga developed severe respiratory infection soon thereafter. The symptoms consisted of fevers to 105° F., night sweats, diffuse myalgia, tachycardia, fatigue, sinus congestion and cough, and unresponsiveness to antibiotics. The patient developed profound fatigue thereafter and went on total disability three months after the onset of symptoms. Initial Coxsackie B virus (CBV) 3, CVB4 and echovirus 9 antibody titers were 1:320, 1:160, 1:80 (normal <1:10), respectively.
# The patient could not work for the next 18 months. They were started on oxymatrine at 300 mg twice a day (bid). After taking oxymatrine for two months, they were able to take short walks, but still exhausted after one hour of activity requiring five hour naps. At the end of three months of therapy, they started having fevers of 104-105° F. for several days with marked decrease in diffuse myalgia. […] CVB3, CVB4 and echovirus antibody three months after therapy were 1:160, 1:160 and 1:20, respectively.
# A person who had recurrent episodes of debilitating fatigue became totally incapacitated after approximately 17 years. […] They went into remission but relapsed nine months later after developing a minor upper respiratory infection. They improved minimally after several months of bed rest, but was barely able to work six hours per day. They had brain fog, myalgia ( 7/10 pain) and was barely able to walk even 1-2 blocks.
# Three days after taking oxymatrine at a dose of 300 mg bid, the myalgia intensified ( 10/10 pain), especially one hour after taking the pills. One week after starting oxymatrine, routine laboratory tests including CBC, chemistry panel and creatine phosphokinase (CPK) were normal. They continued having significant fatigue and myalgia for the next three weeks, but the symptoms resolved one week after stopping the medication. Mild increase in myalgia recurred three days after resuming oxymatrine, but resolved after continuing the medication for the next two weeks. The patient felt well at the end of three months with minimal discomfort in a few muscle groups.
# Severe myalgia recurred after resuming vigorous exercise for three weeks while taking oxymatrine. They had to stop exercise for the two months allowing cessation of myalgia. After taking oxymatrine for six months, the patient felt well. Over the next six months after stopping the medication, the patient continuously performed heavy physical activities without significant difficulty. After developing another episode of upper respiratory symptoms, their symptoms relapsed. They have resumed oxymatrine but experienced increasing myalgia as the fatigue improved.
# A person with a known history of frequent respiratory infections and vasovagal syncope developed respiratory infection, which was followed by bedridden fatigue. Enteroviral protein was detected in the stomach biopsy consistent with chronic enterovirus infection. […] After vigorous exercise, they would still have relapses of bedridden fatigue for one day but continued to work 10-12 hours per day for the next 12 months, walking two miles per day. Laboratory tests were normal while on therapy.
# A person developed debilitating fatigue, sore throat, oral ulcers, vertigo, headaches and cognitive dysfunction two months after having a flu-like illness. […] Approximately four years later, the patient started taking oxymatrine. After an initial increase of gastrointestinal symptoms for the first two weeks, the patient tolerated 500 mg per day of oxymatrine.
# The symptoms continued for two weeks and resolved after stopping oxymatrine. […] They continued to improve for 12 months after taking the medication.
# [2] = system: Mycobacterium avium complex (MAC); assay: Case report: Mycobacterium avium complex infection of the lung
# Protocol: A person with known history of Mycobacterium avium complex (MAC) infection of the lung and bronchiectasis for several years was treated with clarithromycin, ethambutol, ciprofloxacin and rifabutin for about five years. […] Intravenous amikacin was added following right middle and left lingula lobectomy. In spite of the above therapy, sputum and repeat bronchial washing obtained by bronchoscopy grew MAC within three weeks. A computed tomography scan of the chest remained unchanged except for the post-surgical changes.
# Because of persistent positive cultures despite the four drug therapies, the patient was started on oxymatrine, which they tolerated well. […] Sputum became clear in color then resolved. About two months after the start of oxymatrine, the patient had fevers, flu-like symptoms, increase in non-productive cough, bilateral uveitis and elevation of liver enzymes to 3.5 times normal values. The symptoms lasted two weeks and resolved after tapering dose of oxymatrine to 200 mg bid. Liver enzymes returned to normal within six weeks. […] The anti-MAC medications were discontinued after […] of oxymatrine therapy. The dose of oxymatrine was tapered to 100 mg tid at four and a half months of therapy and then stopped after six months of total therapy. The patient felt well at the six month follow-up.
smiles,measurement,setting,value
O=C1CCC[C@@H]2[C@H]3CCC[N@+]4([O-])CCC[C@@H](CN12)[C@@H]34 [oxymatrine],enterovirus protein in stomach biopsy by staining with monoclonal antibody 5D8/1,enterovirus protein,significant reduction in viral protein
same,relapse after therapy,[1]; Example 2 patient,had not relapsed for at least one year
same,clinical outcome,"[1]; Example 2 patient, three months after finishing the medication",went back to full-time work
same,laboratory studies including CBC and complete chemistry panel during therapy,"[1]; Example 2 patient, calcium resolved after stopping hydrochlorothiazide",normal except mildly elevated calcium levels
same,clinical outcome,"[1]; Example 3 patient, after taking oxymatrine for six months",felt well
same,"routine laboratory tests including CBC, chemistry panel and CPK","[1]; Example 3 patient, one week after starting oxymatrine",normal
same,myalgia pain score,"[1]; Example 3 patient, three days after starting 300 mg bid, 7/10 before",10/10
same,laboratory tests while on therapy,[1]; Example 4 patient,normal
same,tolerability,[1]; Example 4 patient,tolerated well without any adverse reactions
same,clinical outcome,"[1]; Example 4 patient, after taking the medication for six weeks",returned to full-time work
same,clinical outcome,"[1]; Example 5 patient, three months later",able to return to part-time work and regular exercise
same,symptoms during therapy,"[1]; Example 5 patient, two months on 500 mg per day, resolved after stopping oxymatrine","severe diffuse ulcerations of the mouth mucosa, increasing headache, sinus congestion and severe myalgia"
same,elevation of liver enzymes,"[2]; about two months after start, returned to normal within six weeks after dose tapering to 200 mg bid",3.5 times normal values
same,repeat computed tomography scans of the chest,[2]; in vivo,healing and calcifications of the lesions
same,repeat bronchial washing culture,"[2]; six months after onset of oxymatrine therapy, with anti-MAC medications",no growth of MAC
same,night sweats,[2]; within two months,decreased from twice a week to once every two weeks
